Measured values: patent publication US10301264B2, “Compounds useful for treating ocular neovasculan” (The University of Nottingham, priority 2012, dated 2019)
≈ marks a conversion by molar mass, not a printed value.

Assays:
laser-induced CNV [1] = assay: Laser-induced mouse CNV model, topical eye drops; format: in vivo; conditions: mouse, topical
Experimental: (§1) Laser Lesion Induction Protocol
(§2) Six to eight week-old C57/B6 mice (B&K Laboratories) and adult Norway-Brown rats (Harlan Laboratories) were anaesthetized with an intraperitoneal injection of a mixture of 50 mg/kg ketamine and 0.5 mg/kg medetomidine. The pupils were dilated with 2.5% phenylephrine hydrochloride and 1% tropicamide. Four photocoagulation lesions were delivered with a krypton red laser (Mice: 250 mW, 0.01 s, 75 μm, Rats: 200 mW, 0.01 s, 75 μm, IRIS Medical 810 nm Oculight Slx laser) between the retinal vessels in a peripapillary distribution at a distance of 1-2 disc-diameters in each eye. Only laser lesions with a subretinal bubble at the time of treatment were included in the study. […] Animals were culled on either day 4 or day 14 and eyes were either unfixed for retinal dissection and protein extraction, or fixed and enucleated and choroids stained for isolectin-B4 and examined.
We performed a dose response trial investigating SRPIN340 topical eye drops. SRPIN340 was dissolved in a previously described drug delivery vehicle (Doukas et al., 2008) and administered twice daily. Fourteen days following laser insult choroids were fixed and flatmounted for isolectin staining and retinae were extracted for RNA analysis.

[2] = system: VEGF165 mRNA isoforms in primary RPE cells; assay: RT-PCR for VEGF165 / VEGF165b mRNA in primary RPE cells; format: cell-based, human; conditions: 100 nM, FIG. 9A
Experimental: ID NO: 5)). […] Cells were treated with […]6 and 7 and the PCR repeated.

laser-induced CNV [3] = assay: Laser-induced mouse CNV model, intravitreal injection; format: in vivo; conditions: discussion summary, route not stated
Experimental: as §1, §2

[4] = system: SRSF1 phosphorylation in PC3 prostate cancer cells; assay: Inhibition of SRSF1 phosphorylation induced by EGF activation; format: cell-based; conditions: 10 μM, 1 hr, 10 nM EGF
Experimental: Inhibition of SRSF1 Phosphorylation Induced by EGF Activation. […] Cells were lysed, and subjected to immunoblotting using an antibody to phosphorylated SR proteins (MAB104) and an antibody to tubulin as a loading control. Intensity was measured for SRSF1 and SRSF5 bands using ImageJ Intensity. Phosphorylation is calculated as the increase in intensity of the band over untreated relative to that for EGF with vehicle.

[5] = system: VEGF165b protein in RPE cells; assay: Western blotting for VEGF165b in RPE cells; format: cell-based, human; conditions: 100 nM, FIG. 9B
Experimental: Protein was extracted from RPE cells treated for 48 hours with SPHINXes and subjected to western blotting for VEGF165b using anti-VEGF165b antibody as previously described (Gammons et al Invest. Ophthahnol. Vis. Sci. 54(9) 6052-6062).

## CN(C)CCN1CCN(c2ccc(C(F)(F)F)cc2NC(=O)c2ccc(-c3ccncc3)o2)CC1 [SPHINX7]
laser-induced CNV [1]
  CNV formation, eye drop: significantly inhibited CNV formation
laser-induced CNV [1]; FIG. 11, read-out: IC50 for inhibition of CNV as an eye drop
  IC50: 0.225 µg/mL (≈ 0.462 µM)
[2]
  amount of VEGF165 at RNA level: reduce the amount of VEGF165
laser-induced CNV [3]
  area of neovascular lesions, mouse laser-induced CNV model: achieving significance
[4]
  SRSF1 phosphorylation induced by EGF: inhibit SRSF1 phosphorylation
[5]
  VEGF165b at protein level: increase VEGF165b
